# Assay results published in US20230372221A1, “USE OF THIOPYRIDINONE COMPOUNDS FOR PREVENTING THE FORMATION OF CUTANEOUS BLACKHEADS” (L'OREAL, priority 2020, published 2023).
# Test system: oxidation of the L-DOPA under the action of the bacterial extract (intracellular extract of Cutibacterium acnes CIP 53.117)
# Test: In vitro evaluation of the ability to inhibit the development of the colour (absorbance at 475 nm of L-DOPA + Cutibacterium acnes extract)
# Type: biochemical
# Settings: for inhibiting the development of the colour (result in words): compared with Reference (absence of treatment); for optical density at 475 nm: 32° C.; for % inhib (percentage of inhibition of the formation of the coloured product): from initial rate of oxidation between 10 and 40 minutes vs reference composition
# Excerpt: This method is based on the measurement of absorbance, over time, carried out directly on a composition formed of a mixture of intracellular extract of bacteria of Cutibacterium acnes type, of 3,4-dihydroxy-L-phenylalanine (L-DOPA) and of a test compound. The measurements are compared with those carried out for a mixture of an intracellular extract of bacteria of Cutibacterium acnes type and of 3,4-dihydroxy-L-phenylalanine (L-DOPA), in the absence of test compound (reference). The method is adapted from a method for the enzymatic assay of the tyrosinase activity (Behbahani et al., Microchemical Journal (1993), 47, 251), which is based on the absorbance properties at 475 nm of a coloured intermediate of the pathway for the biosynthesis of melanin starting from L-DOPA, namely dopachrome, a product of the oxidation of L-DOPA. An intracellular extract of bacteria of Cutibacterium acnes CIP 53.117 type stored at 4° C. in the lyophilized form is suspended in 1×PBS (supplied by Gibco BRL Life Technologies) at a concentration of 6 mg/ml. A solution of L-DOPA at a concentration of 0.5 mg/ml is prepared by bringing together L-DOPA (supplied by Sigma-Aldrich) and milliQ water, so as to have an L-DOPA concentration of 1 mg/ml, then diluting with 1×PBS (Dulbecco's Phosphate Buffered Saline, supplied by Gibco BRL Life Technologies). The mixture of 50 μl of these two solutions and of 100 μl of 1×PBS (Dulbecco's Phosphate Buffered Saline, supplied by Gibco BRL Life Technologies) results in a composition with a total volume of 200 μl containing L-DOPA (at a concentration of 125 μg/ml) and Cutibacterium acnes extract (at a concentration of 1.5 mg/ml). The test compositions and the reference composition are introduced separately into wells of a 96-well microplate suitable for reading in visible spectrophotometry, and placed at a temperature of 32° C. The formation of a coloured product is monitored over time by spectrophotometry. To do this, the absorbance, or optical density (O.D.), is measured at 475 nm from the time 0 to the time 2 hours by means of a Spectra Max M5e reader and the Spectra Max software (the time 0 corresponds to the introduction of the composition into the wells). The ability to inhibit the development of the colour of a given compound was assessed by comparing the absorbance measurements obtained for the test compositions with those obtained for the reference composition. More specifically, the inhibitory effect of the test compound was evaluated by comparing the initial rate of oxidation of the L-DOPA under the action of the bacterial extract at 475 nm for the test composition with that of the reference composition in order to obtain a corresponding percentage of inhibition. In practice, the initial rate (Vi) of the oxidation reaction is calculated from the linear part of the curve of the graph of the absorbance values. As this part lies between 10 and 40 minutes (see the graph in FIG. 1), the initial rate of the oxidation reaction is determined using the following relationship: [formula] The percentage of inhibition (% inhib) of a given compound with regard to the formation of the coloured product is subsequently obtained using the values of the initial rate of the oxidation reaction for the reference composition (Viref) and for the test composition ([…]) according to the following relationship: [formula] Within the meaning of the invention, a compound is regarded as having an inhibitory effect if the % inhib value is at least 15%.
# [1] = test compound 12.5 μM, duration 0 minutes
# [2] = test compound 12.5 μM, duration 10 minutes
# [3] = test compound 12.5 μM, duration 20 minutes
# [4] = test compound 12.5 μM, duration 30 minutes
# [5] = test compound 12.5 μM, duration 40 minutes
# [6] = test compound 12.5 μM, duration 60 minutes
# [7] = test compound 12.5 μM, duration 80 minutes
# [8] = test compound 12.5 μM, duration 100 minutes
# [9] = test compound 12.5 μM, duration 120 minutes
# [10] = test compound 25 μM, duration 0 minutes
# [11] = test compound 25 μM, duration 10 minutes
# [12] = test compound 25 μM, duration 20 minutes
# [13] = test compound 25 μM, duration 30 minutes
# [14] = test compound 25 μM, duration 40 minutes
# [15] = test compound 25 μM, duration 60 minutes
# [16] = test compound 25 μM, duration 80 minutes
# [17] = test compound 25 μM, duration 100 minutes
# [18] = test compound 25 μM, duration 120 minutes
# [19] = test compound 50 μM, duration 0 minutes
# [20] = test compound 50 μM, duration 10 minutes
# [21] = test compound 50 μM, duration 20 minutes
# [22] = test compound 50 μM, duration 30 minutes
# [23] = test compound 50 μM, duration 40 minutes
# [24] = test compound 50 μM, duration 60 minutes
# [25] = test compound 50 μM, duration 80 minutes
# [26] = test compound 50 μM, duration 100 minutes
# [27] = test compound 50 μM, duration 120 minutes
# [28] = test compound 100 μM, duration 0 minutes
# [29] = test compound 100 μM, duration 10 minutes
# [30] = test compound 100 μM, duration 20 minutes
# [31] = test compound 100 μM, duration 30 minutes
# [32] = test compound 100 μM, duration 40 minutes
# [33] = test compound 100 μM, duration 60 minutes
# [34] = test compound 100 μM, duration 80 minutes
# [35] = test compound 100 μM, duration 100 minutes
# [36] = test compound 100 μM, duration 120 minutes
compound,measurement,setting,value
"CCNC(=O)c1ccc[nH]c1=S [Compound 1, N-ethyl-2-thioxo-1,2-dihydropyridine-3-carboxamide]",inhibiting the development of the colour (result in words),,very effective
same,optical density at 475 nm,[1],0.0553
same,optical density at 475 nm,[2],0.0553
same,optical density at 475 nm,[3],0.0561
same,optical density at 475 nm,[4],0.0569
same,optical density at 475 nm,[5],0.0584
same,optical density at 475 nm,[6],0.0605
same,optical density at 475 nm,[7],0.0631
same,optical density at 475 nm,[8],0.0661
same,optical density at 475 nm,[9],0.0681
same,% inhib (percentage of inhibition of the formation of the coloured product),test compound 12.5 μM,66%
same,optical density at 475 nm,[10],0.0554
same,optical density at 475 nm,[11],0.0560
same,optical density at 475 nm,[12],0.0572
same,optical density at 475 nm,[13],0.0587
same,optical density at 475 nm,[14],0.0596
same,optical density at 475 nm,[15],0.0601
same,optical density at 475 nm,[16],0.0611
same,optical density at 475 nm,[17],0.0627
same,optical density at 475 nm,[18],0.0640
same,% inhib (percentage of inhibition of the formation of the coloured product),test compound 25 μM,60%
same,optical density at 475 nm,[19],0.0541
same,optical density at 475 nm,[20],0.0565
same,optical density at 475 nm,[21],0.0568
same,optical density at 475 nm,[22],0.0569
same,optical density at 475 nm,[23],0.0568
same,optical density at 475 nm,[24],0.0575
same,optical density at 475 nm,[25],0.0574
same,optical density at 475 nm,[26],0.0598
same,optical density at 475 nm,[27],0.0597
same,% inhib (percentage of inhibition of the formation of the coloured product),test compound 50 μM,96%
same,optical density at 475 nm,[28],0.0568
same,optical density at 475 nm,[29],0.0555
same,optical density at 475 nm,[30],0.0548
same,optical density at 475 nm,[31],0.0561
same,optical density at 475 nm,[32],0.0555
same,optical density at 475 nm,[33],0.0557
same,optical density at 475 nm,[34],0.0559
same,optical density at 475 nm,[35],0.0564
same,optical density at 475 nm,[36],0.0567
same,% inhib (percentage of inhibition of the formation of the coloured product),test compound 100 μM,100%
"O=C(O)CNC(=O)c1ccc[nH]c1=S [Compound 2, N-[(2-thioxo-1,2-dihydropyridin-3-yl)carbonyl]glycine]",inhibiting the development of the colour (result in words),,very effective
same,optical density at 475 nm,[28],0.0547
same,optical density at 475 nm,[29],0.0561
same,optical density at 475 nm,[30],0.0567
same,optical density at 475 nm,[31],0.0569
same,optical density at 475 nm,[32],0.0574
same,optical density at 475 nm,[33],0.0578
same,optical density at 475 nm,[34],0.0578
same,optical density at 475 nm,[35],0.0578
same,optical density at 475 nm,[36],0.0580
same,% inhib (percentage of inhibition of the formation of the coloured product),test compound 100 μM,84%
"CN(CC(=O)O)C(=O)c1ccc[nH]c1=S [Compound 3, N-methyl-N-[(2-thioxo-1,2-dihydropyridin-3-yl)carbonyl]glycine]",inhibiting the development of the colour (result in words),,very effective
same,optical density at 475 nm,[1],0.0555
same,optical density at 475 nm,[2],0.0565
same,optical density at 475 nm,[3],0.0575
same,optical density at 475 nm,[4],0.0595
same,optical density at 475 nm,[5],0.0613
same,optical density at 475 nm,[6],0.0647
same,optical density at 475 nm,[7],0.0677
same,optical density at 475 nm,[8],0.0686
same,optical density at 475 nm,[9],0.0694
same,% inhib (percentage of inhibition of the formation of the coloured product),test compound 12.5 μM,39%
same,optical density at 475 nm,[10],0.0549
same,optical density at 475 nm,[11],0.0569
same,optical density at 475 nm,[12],0.0578
same,optical density at 475 nm,[13],0.0594
same,optical density at 475 nm,[14],0.0607
same,optical density at 475 nm,[15],0.0630
same,optical density at 475 nm,[16],0.0651
same,optical density at 475 nm,[17],0.0664
same,optical density at 475 nm,[18],0.0677
same,% inhib (percentage of inhibition of the formation of the coloured product),test compound 25 μM,51%
same,optical density at 475 nm,[19],0.0539
same,optical density at 475 nm,[20],0.0561
same,optical density at 475 nm,[21],0.0575
same,optical density at 475 nm,[22],0.0587
same,optical density at 475 nm,[23],0.0594
same,optical density at 475 nm,[24],0.0609
same,optical density at 475 nm,[25],0.0623
same,optical density at 475 nm,[26],0.0632
same,optical density at 475 nm,[27],0.0639
same,% inhib (percentage of inhibition of the formation of the coloured product),test compound 50 μM,58%
same,optical density at 475 nm,[28],0.0579
same,optical density at 475 nm,[29],0.0606
same,optical density at 475 nm,[30],0.0612
same,optical density at 475 nm,[31],0.0619
same,optical density at 475 nm,[32],0.0623
same,optical density at 475 nm,[33],0.0618
same,optical density at 475 nm,[34],0.0606
same,optical density at 475 nm,[35],0.0605
same,optical density at 475 nm,[36],0.0609
same,% inhib (percentage of inhibition of the formation of the coloured product),test compound 100 μM,78%
"CCOC(=O)CN(C)C(=O)c1ccc[nH]c1=S [Compound 4, Ethyl N-methyl-N-[(2-thioxo-1,2-dihydropyridin-3-yl)carbonyl]glycinate]",inhibiting the development of the colour (result in words),,very effective
same,optical density at 475 nm,[1],0.0550
same,optical density at 475 nm,[2],0.0571
same,optical density at 475 nm,[3],0.0585
same,optical density at 475 nm,[4],0.0604
same,optical density at 475 nm,[5],0.0627
same,optical density at 475 nm,[6],0.0659
same,optical density at 475 nm,[7],0.0679
same,optical density at 475 nm,[8],0.0696
same,optical density at 475 nm,[9],0.0709
same,% inhib (percentage of inhibition of the formation of the coloured product),test compound 12.5 μM,43%
same,optical density at 475 nm,[10],0.0573
same,optical density at 475 nm,[11],0.0586
same,optical density at 475 nm,[12],0.0595
same,optical density at 475 nm,[13],0.0609
same,optical density at 475 nm,[14],0.0623
same,optical density at 475 nm,[15],0.0650
same,optical density at 475 nm,[16],0.0682
same,optical density at 475 nm,[17],0.0695
same,optical density at 475 nm,[18],0.0703
same,% inhib (percentage of inhibition of the formation of the coloured product),test compound 25 μM,63%
same,optical density at 475 nm,[19],0.0558
same,optical density at 475 nm,[20],0.0574
same,optical density at 475 nm,[21],0.0580
same,optical density at 475 nm,[22],0.0591
same,optical density at 475 nm,[23],0.0599
same,optical density at 475 nm,[24],0.0617
same,optical density at 475 nm,[25],0.0634
same,optical density at 475 nm,[26],0.0654
same,optical density at 475 nm,[27],0.0666
same,% inhib (percentage of inhibition of the formation of the coloured product),test compound 50 μM,75%
same,optical density at 475 nm,[28],0.0578
same,optical density at 475 nm,[29],0.0579
same,optical density at 475 nm,[30],0.0593
same,optical density at 475 nm,[31],0.0601
same,optical density at 475 nm,[32],0.0608
same,optical density at 475 nm,[33],0.0618
same,optical density at 475 nm,[34],0.0623
same,optical density at 475 nm,[35],0.0627
same,optical density at 475 nm,[36],0.0631
same,% inhib (percentage of inhibition of the formation of the coloured product),test compound 100 μM,71%
